Assays:
[1] = target: T1, HIV reverse transcriptase (RT) (Human immunodeficiency virus type 1 group M subtype B, UniProt P03366); experiment: Assay for HIV reverse transcriptase inhibition (scintillation proximity assay); format: biochemical; settings: for Reverse Transcriptase Assay IC50: RT from HIV cloned in E. coli, SPA, 60 minutes (37° C.)
T1 construct: The enzyme RT (from HIV cloned in E. coli); purchased HT-Biotechnology Ltd, Cambridge, UK; host or cells: E. coli
Experimental: Assay of the Substances for HIV Reverse Transcriptase Inhibition
The activity of reverse transcriptase (RT) was determined with the aid of a scintillation proximity assay (SPA).
The reagent kit for the RT-SPA was obtained from Amersham/Buchler (Braunschweig).
The enzyme RT (from HIV cloned in E. coli) originated from HT-Biotechnology Ltd, Cambridge, UK.
The assay was carried out using the manufacturer's (Amersham) protocol manual, with the following modifications: bovine serum albumin was added to the assay buffer to give an end concentration of 0.5 mg/ml the assay was carried out in Eppendorf reaction vessels, using 100 μl volume per batch the manufacturer's RT concentrate (5000 U/ml) was diluted in Tris-HCl buffer 20 mM; pH 7.2; 30% of glycerol, to an activity of 15 U per ml the incubation time for the mixtures was 60 minutes (37° C.) after stopping the reaction and “developing” with the bead suspension, 130 μl of mixture were transferred to 4.5 ml of Tris-HCl buffer, 10 mM; pH 7.4; 0.15 M NaCl, and the tritium activity was measured by means of a [formula]-counter.
For a pre-assay for inhibitory activity, the substances were dissolved in DMSO (stock solution c=1 mg/ml), and tested as a 10^−1, 10^−2, 10^−3, etc., dilution in DMSO.
To determine IC50 values, the inhibitor stock solutions were diluted further in Tris-HCl buffer, 50 mM, pH 8, and tested in suitable concentrations.
The concentration corresponding to a 50% enzyme inhibition was determined from a plot of RT activity versus log Clnh.

HIV = experiment: Test of preparations against HIV in cell culture (T-cell culture assay); format: cell-based; settings: lowest concentration where no giant cells were observed, HIV-infected lymphocytes from donor blood, 3 days at 37° C.
Experimental: Test of Preparations Against HIV in Cell Culture
Complete medium additionally contains 20% fetal calf serum and 40 IU/ml recombinant interleukin 2.
Lymphocytes which have been isolated from fresh donor blood by means of Ficoll gradient centrifugation are cultured for 36 hours in complete medium with an addition of 2 μg/ml phytohemagglutinin (Wellcome) at 37° C. under 5% of CO2. After 10% of DMSO has been added, the cells are frozen at a density of 5 [formula]10^6 and stored in liquid nitrogen. For the test, the cells are defrosted, washed in RPMI medium and cultured for 3-4 days in the complete medium.
The test preparations were dissolved in DMSO at a concentration of 16.7 mg/ml and diluted in complete medium to 1 mg/ml.
0.4 ml of medium was introduced into 24-multiwell dishes. 0.1 ml of the dissolved preparation was added to the upper row of the dish, and, by transferring 0.1 ml portions, a geometric dilution series was established. Controls without preparation always contained 0.4 ml of complete medium containing 0.5% of DMSO. Lymphocyte cultures with a cell density of 5 [formula]10^5 cells/ml were infected by adding 1/50 volume supernatant from HIV-infected lymphocyte cultures. The titer of these culture supernatants was determined by end-point titration as 1-5 [formula]10^6 infectious units/ml. After 30 minutes' incubation at 37° C., the infected lymphocytes were removed by centrifugation and taken up in an equal volume of medium. From this cell suspension, 0.6 ml aliquots were transferred into all wells of the test plate. The mixtures were incubated for 3 days at 37° C.
The infected cell cultures were examined under the microscope for the presence of giant cells, which indicate active virus multiplication in the culture. The lowest concentration of preparation where no giant cells were observed was determined as inhibitory concentration against HIV. As a control, the supernatants from the culture plates were tested for the presence of HIV antigen with the aid of an HIV antigen test following the manufacturer's instructions (Organon).

melting point [°C] | SMILES | Reverse Transcriptase Assay IC50 [1] | T-cell culture assay MIC (HIV) [µg/mL] | IC50 [1] [nM] | MIC (HIV; Human immunodeficiency virus 1, 72 h) [µg/mL]
167 | CC1C(=O)Nc2ccc(Cl)cc2N1C1CC1 (racemic) [Example XVIII, (3RS)-6-Chloro-4-N-(cyclopropyl)-3-methyl-3,4-dihydroquinoxalin-2(1H)-one] |  |  |  | 
142 to 144 | C[C@H]1C(=O)Nc2ccc(Cl)cc2N1C(=O)Cl [Example XXXV, (3S)-6-Chloro-4-N-chlorocarbonyl-3-methyl-3,4-dihydroquinoxalin-2(1H)-one] |  |  |  | 
253 to 254 | O=C1CNc2ccc(S(=O)(=O)Oc3ccccc3)cc2N1 [XXIX, 7-Phenoxysulfonyl-3,4-dihydroquinoxalin-2(1H)-one] |  |  |  | 
 | C=C(C)OC(=O)N1c2cc(Cl)ccc2NC(=S)C1(C)C [Example 7-11] | 0.01 µg/mL | <0.01 |  | 
 | CC1C(=O)Nc2ccc(Cl)cc2N1Cc1cc(Cl)cc(Cl)c1 (stereo not drawn) [Example 10-28] | 0.1 to 1 µg/mL | <0.8 |  | 
 | CCOC(=O)N1c2cc(Cl)ccc2NC(=O)C1C (stereo not drawn) [Example 3-23] | 0.1 to 1 µg/mL | 0.08 |  | 
 | CC1(C)Nc2cc(Cl)ccc2NC1=S [Example 7-13] | 0.1 to 1 µg/mL | <0.08 |  | 
 | CC(C)=CCN1c2ccc(C)c(C)c2NC(=O)C1(C)C [Example 6-27] | approx. 1 μg/ml | <0.4 |  | 
 | CC(C)=CCN1c2cc(Cl)ccc2NC(=O)C1C (racemic) [VI-C, (3RS)-6-Chloro-3-methyl-4-N-(3-methyl-2-buten-1-yI)-3,4-dihydroquinoxalin-2(1H)-one] | 0.8 µg/mL | <0.8 |  | 
 | CC(C)=CCN1c2ccccc2NC(=S)C1C (racemic) [Example 7-1, (3RS)-3-Methyl-4-N-(3-methyl-2-buten-1-yl)-3,4-dihydroquinoxaline-2(1H)-thione] |  |  | 325 | < 0.16
 | C=CCOC(=O)N1c2cc(Cl)ccc2NC(=O)C1C (stereo not drawn) [Example 3-7] | 0.08 µg/mL | 0.08 |  | 
 | CCC1C(=O)Nc2ccc(Cl)cc2N1CC=C(C)C (stereo not drawn) [Example 3-29] | 0.1 to 1 µg/mL | <0.4 |  | 
 | C=CCOC(=O)N1c2cc(Cl)ccc2NC(=O)C1CC (stereo not drawn) [Example 3-32] | approx. 0.1 μg/ml | <0.4 |  | 
 | CC(C)OC(=O)N1c2cc(Cl)ccc2NC(=O)C1(C)C [Example 6-50] | 0.01 to 0.1 µg/mL | <0.01 |  | 
 | C=CCOC(=O)N1c2cc(Cl)ccc2NC(=S)C1(C)C [Example 7-21] | 0.01 to 0.1 µg/mL | <0.01 |  | 
 | CC(C)OC(=O)N1c2cc(Cl)ccc2NC(=S)C1(C)C [Example 7-22] | 0.01 to 0.1 µg/mL | <0.01 |  | 
 | CC1C(=O)Nc2ccc(Cl)cc2N1Cc1c(Cl)cccc1Cl (stereo not drawn) [Example 10-27] | 0.1 to 1 µg/mL | 0.8 |  | 
 | C=C(C)OC(=O)N1c2cccc(C)c2NC(=O)C1(C)C [Example 6-17] | 0.1 to 1 µg/mL | <0.8 |  | 
 | C=C(C)OC(=O)N1c2cc(Cl)ccc2NC(=O)[C@@H]1C [Example XIII, (3S)-6-Chloro-N-(isopropenyloxycarbonyl)-3-methyl-3,4-dihydroquinoxalin-2(1H)-one] | 0.04 µg/mL | <0.16 |  | 
 | C=C(C)OC(=O)N1c2cc(Cl)ccc2NC(=S)C1CSC (stereo not drawn) [Example 7-23] | 0.01 to 0.1 µg/mL | <0.01 |  | 
 | CC1C(=S)Nc2ccc(Cl)cc2N1Cc1ccccc1 (stereo not drawn) [Example 7-3] | 0.07 µg/mL | <0.01 |  | 

melting point [°C] | SMILES | Reverse Transcriptase Assay IC50 [1] | T-cell culture assay MIC (HIV) [µg/mL] | IC50 [1] [nM] | MIC (HIV; Human immunodeficiency virus 1, 72 h) [µg/mL]
 | C=C(C)OC(=O)N1c2ccc(Cl)cc2NC(=O)C1C(C)C (stereo not drawn) [Example 3-57] | approx. 1 μg/ml | <0.8 |  | 
 | C#CCN1c2cc(Cl)ccc2NC(=O)C1C (stereo not drawn) [Example 10-9] | approx. 1 μg/ml | <0.8 |  | 
 | CCCCOC(=O)N1c2cc(Cl)ccc2NC(=O)C1C (stereo not drawn) [Example 3-25] | 0.1 to 1 µg/mL | 0.4 |  | 
 | CCCOC(=O)N1c2cc(Cl)ccc2NC(=O)C1C (stereo not drawn) [Example 3-24] | 0.1 to 1 µg/mL | 0.08 |  | 
 | C=C(C)OC(=O)N1c2cc(Cl)ccc2NC(=O)C1C(C)CC (stereo not drawn) [Example 3-81] | approx. 1 μg/ml | 0.08 |  | 
 | C=C(C)OC(=O)N1c2cc(Cl)ccc2NC(=O)C1CC (stereo not drawn) [Example 3-30] | 0.025 µg/mL | <0.01 |  | 
 | CC1C(=O)Nc2ccc(Cl)cc2N1Cc1ccccc1[N+](=O)[O-] (stereo not drawn) [Example 10-18] | 0.1 to 1 µg/mL | <0.8 |  | 
 | CC(C)=CCN1c2cc(Cl)ccc2NC(=O)C1(C)C [Example 6-1] | approx. 1 μg/ml | 0.4 |  | 
 | CC1C(=O)Nc2ccc(Cl)cc2N1Cc1ccccc1Cl (stereo not drawn) [Example 10-21] | 0.1 to 1 µg/mL | <0.8 |  | 
 | CC(C)=CCN1c2cc(Cl)ccc2NC(=S)C1(C)C [Example 7-7] | 0.1 µg/mL | 0.04 |  | 
 | CC1C(=O)Nc2ccc(Cl)cc2N1Cc1cccc(Cl)c1 (stereo not drawn) [Example 10-20] | 0.1 to 1 µg/mL | <0.8 |  | 
 | CC1C(=O)Nc2ccc(Cl)cc2N1Cc1ccco1 (stereo not drawn) [Example 10-13] | approx. 1 μg/ml | 0.08 |  | 
 | CC1C(=O)Nc2ccc(Cl)cc2N1Cc1ccccn1 (stereo not drawn) [Example 10-10] | approx. 1 μg/ml | 0.08 |  | 
 | CC(C)=CCN1c2cc(Cl)ccc2NC(=S)C1C (stereo not drawn) [Example 7-2] | 0.07 µg/mL | <0.01 |  | 
 | CC1C(=O)Nc2ccc(Cl)cc2N1Cc1cccc([N+](=O)[O-])c1 (stereo not drawn) [Example 10-17] | approx. 1 μg/ml | 0.8 |  | 
 | CC(C)=CCN1c2cccc(C)c2NC(=O)C1(C)C [Example 6-16] | approx. 1 μg/ml | <0.8 |  | 
 | CC(C)OC(=O)N1c2cc(Cl)ccc2NC(=O)C1C (stereo not drawn) [Example 11-11] | 0.1 to 1 µg/mL | 0.01 |  | 
 | C=C(C)OC(=O)N1c2cc(Cl)ccc2NC(=O)C1CSC (stereo not drawn) [Example 3-76] | 0.018 µg/mL | <0.08 |  | 
 | CSCC1C(=O)Nc2ccc(Cl)cc2N1CC=C(C)C (stereo not drawn) [Example 3-75] | 0.1 to 1 µg/mL | <0.8 |  | 
 | C=C(C)OC(=O)N1c2cc(Cl)ccc2NC(=S)C1CC (stereo not drawn) [Example 7-14] | 0.01 to 0.1 µg/mL | <0.08 |  | 
 | C=C(C)OC(=O)N1c2ccc(C)c(C)c2NC(=O)C1(C)C [Example 6-35] | 0.1 to 1 µg/mL | <0.08 |  | 

From patent publication US6369057B1, “Quinoxalines, processes for their preparation and their use” (Aventis Pharma Deutschland GmbH, priority 1991, dated 2002)
